Laboratory results from US4425356A, “Lankacidin derivatives used in swine husbandry” (Takeda Chemical Industries, Ltd., priority 1980, dated 1984).
Where two headings read alike, the source gives them in different places.

Columns and labels:
[1] = acute toxicity tests with mice; settings: mouse, in vivo
Description: The toxicity of compound (I) in animals is very low.

[2] = growth of pigs, 5-month continuous dietary administration, Test Examples 10-11; assay type: in vivo, Landrace pigs; settings: for Body weight at end / Body weight at feed exchange / Body weight gain for starter feed period / Body weight gain for whole period / Feed conversion for starter feed period / Feed conversion for whole period / Feed intake for starter feed period / Feed intake for whole period: mean per head; for growth and feed efficiency (in words): dietary, 5 months
Method: Effects of compound (I) on the growth of pigs under the conditions in which swine dysentery was absent were examined. Thus, 40 one-month-old Landrace pigs (5 litters) were used in groups each consisting of 8 (4 males and 4 females). Lankacidin C was added in concentrations of 0 (control), 1, 2.5, 5 and 10 ppm to antibacterial agent-free starter feed for the period from the start of the test through the age of 3 months and to the feed for testing pigs for performance of meat production (also free of antibacterial agents) for the period from the age of 4 months to the age of 6 months (end). Thus, in each group, dietary lankacidin C was administered continuously for 5 months.
The data are each the mean value per head. Different alphabetic letters o
Fourty-eight 35-day-old Landrace pigs (6 litters) were used in 6 groups each consisting of 8 (4 males and 4 females). Lankacidin A was added in concentrations of 0 (control), 1, 2.5, 5, 10 and 20 ppm to antibacterial agent-free starter feed for the period from the start of the test through the age of 3 months and to the feed for testing pigs for performance of meat production (also free of antibacterial agents) for the period from the age of 4 months to the age of 6 months (end).

[3] = ip, intraperitoneal, read-out: intraperitoneal LD50

Question: Which results are given for `CC(=O)OC1C=CC(C)=CCC(O)C=CC(C)=CC(NC(=O)C(C)=O)C2(C)C(=O)OC(C1)C(C)C2=O` (stereo not drawn) [Lankacidin A, lankacidin A]?
Answer: LD50 [1, 3]: 8000 to 10000 mg/kg; LD50 ([1]; oral, read-out: oral LD50): > 10000 mg/kg; Body weight at end ([2]; 1 ppm in feed): 111.6 kg; Body weight at feed exchange ([2]; 1 ppm in feed): 34.0 kg; Body weight gain for starter feed period ([2]; 1 ppm in feed): 24.8 kg; Body weight gain for whole period ([2]; 1 ppm in feed): 102.4 kg; Feed conversion for starter feed period ([2]; 1 ppm in feed): 1.94; Feed conversion for whole period ([2]; 1 ppm in feed): 2.88; Feed intake for starter feed period ([2]; 1 ppm in feed): 48.1 kg; Feed intake for whole period ([2]; 1 ppm in feed): 294.9 kg; Body weight at end ([2]; 2.5 ppm in feed): 113.5 kg; Body weight at feed exchange ([2]; 2.5 ppm in feed): 34.6 kg; Body weight gain for starter feed period ([2]; 2.5 ppm in feed): 25.4 kg; Body weight gain for whole period ([2]; 2.5 ppm in feed): 104.4 kg; Feed conversion for starter feed period ([2]; 2.5 ppm in feed): 1.87; Feed conversion for whole period ([2]; 2.5 ppm in feed): 2.83; Feed intake for starter feed period ([2]; 2.5 ppm in feed): 47.6 kg; Feed intake for whole period ([2]; 2.5 ppm in feed): 295.3 kg; Body weight at end ([2]; 5 ppm in feed): 118.3 kg; Body weight at feed exchange ([2]; 5 ppm in feed): 36.1 kg; Body weight gain for starter feed period ([2]; 5 ppm in feed): 26.9 kg; Body weight gain for whole period ([2]; 5 ppm in feed): 109.1 kg; Feed conversion for starter feed period ([2]; 5 ppm in feed): 1.77; Feed conversion for whole period ([2]; 5 ppm in feed): 2.79; Feed intake for starter feed period ([2]; 5 ppm in feed): 47.6 kg; Feed intake for whole period ([2]; 5 ppm in feed): 304.3 kg; Body weight at end ([2]; 10 ppm in feed): 120.5 kg; Body weight at feed exchange ([2]; 10 ppm in feed): 36.7 kg; Body weight gain for starter feed period ([2]; 10 ppm in feed): 27.6 kg; Body weight gain for whole period ([2]; 10 ppm in feed): 111.4 kg; Feed conversion for starter feed period ([2]; 10 ppm in feed): 1.73; Feed conversion for whole period ([2]; 10 ppm in feed): 2.74; Feed intake for starter feed period ([2]; 10 ppm in feed): 47.7 kg; Feed intake for whole period ([2]; 10 ppm in feed): 305.2 kg; Body weight at end ([2]; 20 ppm in feed): 123.4 kg; Body weight at feed exchange ([2]; 20 ppm in feed): 37.4 kg; Body weight gain for starter feed period ([2]; 20 ppm in feed): 28.8 kg; Body weight gain for whole period ([2]; 20 ppm in feed): 114.2 kg; Feed conversion for starter feed period ([2]; 20 ppm in feed): 1.71; Feed conversion for whole period ([2]; 20 ppm in feed): 2.72; Feed intake for starter feed period ([2]; 20 ppm in feed): 48.2 kg; Feed intake for whole period ([2]; 20 ppm in feed): 310.6 kg; growth and feed efficiency (in words) [2]: Swine growth was promoted proportionally to the increase of level of addition of lankacidin A, and the feed efficiency was improved accordingly

Question: Which results are given for `CC(=O)C(=O)NC1C=C(C)C=CC(O)CC=C(C)C=CC(O)CC2OC(=O)C1(C)C(=O)C2C` (stereo not drawn) [Lankacidin C, lankacidin C]?
Answer: LD50 [1, 3]: 4500 mg/kg; LD50 ([1]; oral, read-out: oral LD50): > 10000 mg/kg; Body weight at end ([2]; 1 ppm in feed): 102.4 kg; Body weight at feed exchange ([2]; 1 ppm in feed): 32.7 kg; Body weight gain for starter feed period ([2]; 1 ppm in feed): 25.4 kg; Body weight gain for whole period ([2]; 1 ppm in feed): 95.0 kg; Feed conversion for starter feed period ([2]; 1 ppm in feed): 1.95; Feed conversion for whole period ([2]; 1 ppm in feed): 2.90; Feed intake for starter feed period ([2]; 1 ppm in feed): 49.4 kg; Feed intake for whole period ([2]; 1 ppm in feed): 275.6 kg; Body weight at end ([2]; 2.5 ppm in feed): 104.6 kg; Body weight at feed exchange ([2]; 2.5 ppm in feed): 34.2 kg; Body weight gain for starter feed period ([2]; 2.5 ppm in feed): 26.9 kg; Body weight gain for whole period ([2]; 2.5 ppm in feed): 97.2 kg; Feed conversion for starter feed period ([2]; 2.5 ppm in feed): 1.83; Feed conversion for whole period ([2]; 2.5 ppm in feed): 2.86; Feed intake for starter feed period ([2]; 2.5 ppm in feed): 49.1 kg; Feed intake for whole period ([2]; 2.5 ppm in feed): 278.0 kg; Body weight at end ([2]; 5 ppm in feed): 109.0 kg; Body weight at feed exchange ([2]; 5 ppm in feed): 36.9 kg; Body weight gain for starter feed period ([2]; 5 ppm in feed): 29.5 kg; Body weight gain for whole period ([2]; 5 ppm in feed): 101.7 kg; Feed conversion for starter feed period ([2]; 5 ppm in feed): 1.72; Feed conversion for whole period ([2]; 5 ppm in feed): 2.80; Feed intake for starter feed period ([2]; 5 ppm in feed): 50.7 kg; Feed intake for whole period ([2]; 5 ppm in feed): 284.6 kg; Body weight at end ([2]; 10 ppm in feed): 110.2 kg; Body weight at feed exchange ([2]; 10 ppm in feed): 37.5 kg; Body weight gain for starter feed period ([2]; 10 ppm in feed): 30.1 kg; Body weight gain for whole period ([2]; 10 ppm in feed): 102.8 kg; Feed conversion for starter feed period ([2]; 10 ppm in feed): 1.70; Feed conversion for whole period ([2]; 10 ppm in feed): 2.77; Feed intake for starter feed period ([2]; 10 ppm in feed): 51.2 kg; Feed intake for whole period ([2]; 10 ppm in feed): 284.8 kg; growth and feed efficiency (in words) [2]: growth of pigs was increased in a manner almost proportional to the level of addition of lankacidin C, and accordingly the feed efficiency was improved
